From article PMC7160333, “Physiological Role of Glutamate Dehydrogenase in Cancer Cells” (Frontiers in Oncology, 2020)
Where two headings read alike, the source gives them in different places.

Assays:
[1] = system: cancer cells; test: Viability by trypan blue assay in 2-D cultures with ammonium; assay type: cell-based, human; conditions: all culture conditions
[2] = target: HepM GDH1 (Rattus norvegicus, UniProt P10860); test: GDH reverse (aminating) reaction activity in hepatoma mitochondria (HepM); assay type: biochemical; conditions: HepM; for K0.5 NH4+: reverse reaction, Hill equation; for Km: read-out: Km NH4+
Sequence of HepM GDH1 (P10860 54-558): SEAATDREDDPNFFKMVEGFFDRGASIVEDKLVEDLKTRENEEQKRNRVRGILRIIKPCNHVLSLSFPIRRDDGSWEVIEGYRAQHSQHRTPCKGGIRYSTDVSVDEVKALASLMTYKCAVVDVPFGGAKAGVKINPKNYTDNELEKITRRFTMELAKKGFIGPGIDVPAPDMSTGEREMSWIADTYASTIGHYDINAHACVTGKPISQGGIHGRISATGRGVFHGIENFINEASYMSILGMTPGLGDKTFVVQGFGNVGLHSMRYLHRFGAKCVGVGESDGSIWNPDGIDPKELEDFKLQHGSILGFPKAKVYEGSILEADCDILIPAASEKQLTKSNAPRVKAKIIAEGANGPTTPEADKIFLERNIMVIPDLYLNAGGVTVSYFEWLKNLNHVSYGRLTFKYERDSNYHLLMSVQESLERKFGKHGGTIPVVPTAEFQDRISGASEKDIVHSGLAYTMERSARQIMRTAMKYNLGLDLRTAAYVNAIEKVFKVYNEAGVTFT
Description: Tightly coupled mitochondria were isolated from fed-rat liver (RLM) and AS-30D cells (HepM) as described elsewhere ([89], [90]). […] The resulting mitochondrial fractions were resuspended at 30 to 80 mg protein/mL in SHE buffer with 1 mM PMSF, 1 mM EDTA, 5 mM DTT, and 10% glycerol, and stored at −70°C until use for determination of enzyme activity and Western blotting.

In the case of Cl.N [NH4Cl, Ammonium chloride], the Viability [1] is reported as “higher than 90%”, the “K0.5 NH4+” value ([2]; pH 7.2, 37°C) is reported as 25.2 ± 8 mM and the “nH (Hill coefficient) for NH4+” value ([2]; pH 7.2, Hill equation) is reported as 2.12 ± 0.7. The Km ([2]; pH 7.2, MWC equation, GTP inhibition, saturating ADP) was 12 ± 2.6 mM, the Km ([2]; pH 7.2, MWC equation, with ADP) was 11.2 ± 3.5 mM and the “K0.5 NH4+” value ([2]; pH 7.5, 37°C) was 26.8 ± 7.2 mM. For the same compound, the “nH (Hill coefficient) for NH4+” value ([2]; pH 7.5, Hill equation) was 1.5 ± 0.7, the Km ([2]; pH 7.5, MWC equation, GTP inhibition, saturating ADP) was 10.3 ± 2.6 mM and the Km ([2]; pH 7.5, MWC equation, with ADP) was 9.3 ± 7.2 mM.
